Series [1] in a line: physchem. The format is physicochemical. As to conditions: for half-life: buffer. From the text:
In the case of the crosslinking agent genipin (GP), using a quantitative HPLC assay, the inventors have shown that the agent is unstable in aqueous solution. The rate of degradation can be very rapid and is dependent on pH. […] In all cases this instability is not suitable for long term storage of a genipin-containing crosslinking agent at ambient temperature. […] The inventors have also shown that GP is stable as a powder for at least 1 year. These observations have consequences for the manufacture and/or final form of a crosslinking reagent containing GP, i.e., the GP would have to be stored either in powdered form or in a suitable non-aqueous, water-miscible solvent. The solvent could be, but is not limited to, ethanol, methanol, propanol, acetonitrile or dimethyl sulfoxide.

The subject of a further series is calf lumbar spinal discs. The series can be described thus: Diffusion study in calf lumbar spinal discs (area of diffusion zone, ImageJ). As to conditions: 0.1% (w/v) SDS in PBS, 1 hr, 37° C.; p=0.021. How it is done: FIG. 12—Diffusion kinetics of genipin and BSA in calf lumbar spinal discs. 200 μl of 0.33% (w/v) or 1 mg/ml BSA-Texas Red were injected at a depth of 1 cm into the discs of individual calf lumbar motion segments and incubated for 1, 3 or 6 hours at 37° C. Samples were transected and the area of each diffusion zone at each time point and for each reagent was determined from photographs using ImageJ software.
FIG. 13—Effect of surfactants on the diffusion of GP and BSA-TR. 200 μl of 0.33% (w/v) or 1 mg/ml BSA-Texas Red formulated in PBS in the absence of presence of 0.1% (w/v) of either Tween-20 or SDS were injected at a depth of 1 cm into the discs of individual calf lumbar motion segments. Segments were incubated for 1 hr at 37° C. and the samples were then transected and the area of each diffusion zone determined from photographs using ImageJ software.
In order to observe the diffusion kinetics of these markers, GP (0.33% (w/v)) or BSA-TR (1 mg/ml) were dissolved in PBS and 200 μl injected at a depth of 1 cm into the discs of individual calf lumbar motion segments and incubated at 37° C. for 1, 3 or 6 hrs in sealed ZipLoc bags containing a sheet of paper towel moistened with H2O. […] In some cases, however, diffusion zones merged and were not possible to quantify and in subsequent experiments injections were limited to the left and right lateral regions. […]

The subject of series [2] is annulus fibrosus specimens from bovine lumbar intervertebral discs. The series can be described thus: Tear resistance of annulus fibrosus (radial tear propagation). As to conditions: soaked two days in 0.15M PBS plus 0.33% genipin. From the text:
Ten annulus fibrosus circumferentially aligned specimens from bovine lumbar (T12-L5) intervertebral discs were divided into two groups and either soaked two days in a 0.15M PBS or a 0.15M PBS plus 0.33% genipin solution. A custom loading fixture attached to a uniaxial materials testing system was designed to hold an annulus specimen perpendicular to the travel of a metal cylinder placed in a pre-existing radial cut. The cylinder was then pulled radially (perpendicular to lamellae) towards the external layer. Time dependent force and displacement data was acquired simultaneously. Tearing resistance was quantified in two ways: peak force normalized by specimen thickness and tearing energy per area of tear. Differences between groups were analyzed using the Mann-Whitney non-parametric test.

Series [3] in a line: physchem. The series is classed as physicochemical. From the text:
In the case of crosslinking agents that are not very water-soluble, additional reagents may be required to maintain the solubility of the crosslinking agent. Such reagents should be miscible with water and function to increase the solubility of the crosslinking agent by reducing the hydrophilicity of the aqueous medium. […] At the upper limit, GP was soluble in 100% DMSO to a level of 2.6M. […] Thus manipulation of the buffer concentration and the addition of co-solvents allows for the manipulation of the crosslinking reagent concentration to the desired level. The values were all determined at ambient room temperature. Crosslinker solubility could also be increased by increasing the temperature of the solvent.

≈ marks a conversion by molar mass, not a printed value.

As to `COC(=O)C1=CO[C@@H](O)[C@@H]2C(CO)=CC[C@H]12` [Genipin, genipin], in the series “physchem [1]”, the “degradation in non-aqueous solvents” value was “no GP degradation was detected”. The “stability as a powder” value in “physchem [1]” was “at least 1 year”. The half-life is 8.92 days in “physchem [1]” (pH 4); 9.12 days in “physchem [1]” (pH 5); 5.62 days in the series “physchem [1]” (pH 6); 2.5 days in “physchem [1]” (pH 7); 0.75 days in the series “physchem [1]” (pH 8); 0.117 days in “physchem [1]” (pH 9). Further, in the series with calf lumbar spinal discs, the “enhancement of diffusion by SDS” value is reported as “approximately 30%”. In addition, the “Total energy per area of tear” value in series [2] (p=0.047 vs control) stood at 40.2 mJ/mm^2. Further, the Normalized peak force in series [2] (p=0.076 vs control) was 42.7 N/mm. Also, the solubility is 60.4 mM (≈ 13.7 mg/mL) in the series “physchem [3]” (aqueous buffer); 74.6 mM (≈ 16.9 mg/mL) in the series “physchem [3]” (aqueous with cosolvent or surfactant or cyclodextrin); 2600 mM (≈ 588 mg/mL) in “physchem [3]” (organic solvent or mixture); 39.6 mM (≈ 8.96 mg/mL) in “physchem [3]” (pH 9, aqueous buffer); 63.3 mM (≈ 14.3 mg/mL) in the series “physchem [3]” (pH 9, aqueous with cosolvent or surfactant or cyclodextrin).

The record behind these values is patent US8283322B2, “Formulations for nonsurgical exogenous crosslink therapy” (Orthopeutics, LP, priority 2008, dated 2012).
